Assay results as given in paper PMC2654387 (Biochemistry, 2008).
Read-outs that look alike come from different tables or passages of the source.

Key:
[1] = molecular target: T1, BasE (Acinetobacter baumannii, UniProt A0A0D5YGP3); type: biochemical
[2] = molecular target: T2, EntE (Escherichia coli, UniProt P10378); settings: cited from earlier work
[3] = molecular target: T1, BasE; experiment: biochemical; type: binding
[4] = molecular target: T2, EntE; experiment: biochemical; type: binding
[5] = molecular target: T3, VibE (Vibrio cholerae serotype O1, UniProt O07899)
[6] = molecular target: T2, EntE
[7] = molecular target: T4, MbtA (Mycobacterium tuberculosis, UniProt P71716)
[8] = molecular target: T5, YbtE (Yersinia pseudotuberculosis serotype I, UniProt Q3V7P9)
[9] = molecular target: AsbC (Bacillus anthracis, UniProt Q81RQ7)
[10] = molecular target: T4, MbtA; remark: listed apart in the source
[11] = molecular target: T1, BasE; type: binding
[12] = molecular target: T4, MbtA; remark: listed apart in the source
[13] = molecular target: T1, BasE; type: binding; remark: listed apart in the source
[14] = molecular target: T6, DhbE (Bacillus subtilis, UniProt P40871); type: binding
[15] = molecular target: T4, MbtA; experiment: biochemical; type: binding
[16] = molecular target: T3, VibE; experiment: biochemical; type: binding
[17] = molecular target: T6, DhbE; experiment: biochemical; type: binding
[18] = molecular target: T5, YbtE; settings: read-out: Calculated Ligand-Protein Dissociation Constant KD2
[19] = Calculated Ligand-Protein Dissociation Constant KD2
[20] = read-out: Calculated Ligand-Protein Dissociation Constant KD2

T1 sequence (A0A0D5YGP3 1-542): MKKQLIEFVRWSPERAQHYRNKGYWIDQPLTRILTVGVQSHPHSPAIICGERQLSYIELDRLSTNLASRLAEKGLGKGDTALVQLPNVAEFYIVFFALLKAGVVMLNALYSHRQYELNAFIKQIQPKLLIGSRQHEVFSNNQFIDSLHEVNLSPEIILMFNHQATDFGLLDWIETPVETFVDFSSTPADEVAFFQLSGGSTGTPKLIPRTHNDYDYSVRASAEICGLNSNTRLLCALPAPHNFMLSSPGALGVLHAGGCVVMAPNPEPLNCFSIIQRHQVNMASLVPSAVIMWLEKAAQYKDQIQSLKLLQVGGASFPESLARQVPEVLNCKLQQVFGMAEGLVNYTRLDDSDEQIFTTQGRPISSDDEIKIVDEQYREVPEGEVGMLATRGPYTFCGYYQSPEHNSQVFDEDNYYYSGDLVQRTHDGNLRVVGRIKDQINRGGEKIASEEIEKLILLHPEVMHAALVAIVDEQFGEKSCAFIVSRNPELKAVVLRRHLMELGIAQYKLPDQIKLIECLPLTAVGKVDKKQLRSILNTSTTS
T2 sequence (P10378 whole entry): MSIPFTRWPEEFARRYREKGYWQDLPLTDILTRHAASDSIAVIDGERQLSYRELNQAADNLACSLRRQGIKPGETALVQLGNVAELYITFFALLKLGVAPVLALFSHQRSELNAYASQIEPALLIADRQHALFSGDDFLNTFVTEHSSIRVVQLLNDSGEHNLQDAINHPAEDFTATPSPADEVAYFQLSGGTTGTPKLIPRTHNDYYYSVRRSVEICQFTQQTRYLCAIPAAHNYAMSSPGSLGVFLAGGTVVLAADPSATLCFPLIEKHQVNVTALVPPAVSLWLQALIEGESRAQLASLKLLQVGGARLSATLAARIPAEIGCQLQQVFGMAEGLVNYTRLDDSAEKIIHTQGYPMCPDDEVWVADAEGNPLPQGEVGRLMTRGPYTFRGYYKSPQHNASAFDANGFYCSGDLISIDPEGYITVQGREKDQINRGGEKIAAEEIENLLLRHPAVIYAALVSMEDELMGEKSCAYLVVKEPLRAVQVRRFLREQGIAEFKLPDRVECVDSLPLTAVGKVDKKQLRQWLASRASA
T5 sequence (Q3V7P9 1-525): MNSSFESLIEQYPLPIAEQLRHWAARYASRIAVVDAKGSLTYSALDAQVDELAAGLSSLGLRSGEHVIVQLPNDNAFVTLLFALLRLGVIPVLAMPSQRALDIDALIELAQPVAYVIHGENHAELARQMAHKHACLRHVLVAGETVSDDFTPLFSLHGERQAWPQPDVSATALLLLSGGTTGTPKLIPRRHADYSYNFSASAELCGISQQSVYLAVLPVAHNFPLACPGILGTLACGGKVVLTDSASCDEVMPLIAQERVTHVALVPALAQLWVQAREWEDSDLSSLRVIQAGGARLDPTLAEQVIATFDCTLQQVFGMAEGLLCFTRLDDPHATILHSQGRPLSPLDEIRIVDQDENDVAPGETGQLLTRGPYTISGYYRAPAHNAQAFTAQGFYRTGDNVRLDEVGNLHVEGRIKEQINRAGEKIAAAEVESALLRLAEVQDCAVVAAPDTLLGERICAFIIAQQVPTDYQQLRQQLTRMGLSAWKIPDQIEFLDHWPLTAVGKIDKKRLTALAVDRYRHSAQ
T6 sequence (P40871 whole entry): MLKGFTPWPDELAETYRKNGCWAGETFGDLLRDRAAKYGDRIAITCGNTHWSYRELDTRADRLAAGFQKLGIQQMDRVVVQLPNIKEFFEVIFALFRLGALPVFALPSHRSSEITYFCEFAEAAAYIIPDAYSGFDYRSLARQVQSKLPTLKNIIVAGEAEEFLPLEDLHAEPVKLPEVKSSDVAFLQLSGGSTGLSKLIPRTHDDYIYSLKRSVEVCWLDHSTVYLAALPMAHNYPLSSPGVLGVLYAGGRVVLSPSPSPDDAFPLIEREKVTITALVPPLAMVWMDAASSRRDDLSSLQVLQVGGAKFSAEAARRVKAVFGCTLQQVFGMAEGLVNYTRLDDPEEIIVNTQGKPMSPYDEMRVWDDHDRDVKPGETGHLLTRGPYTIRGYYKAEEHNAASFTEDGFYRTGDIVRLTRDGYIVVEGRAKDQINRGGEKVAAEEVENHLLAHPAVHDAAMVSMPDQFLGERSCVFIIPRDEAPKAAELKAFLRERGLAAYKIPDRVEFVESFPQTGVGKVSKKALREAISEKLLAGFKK
T3 sequence (O07899 whole entry): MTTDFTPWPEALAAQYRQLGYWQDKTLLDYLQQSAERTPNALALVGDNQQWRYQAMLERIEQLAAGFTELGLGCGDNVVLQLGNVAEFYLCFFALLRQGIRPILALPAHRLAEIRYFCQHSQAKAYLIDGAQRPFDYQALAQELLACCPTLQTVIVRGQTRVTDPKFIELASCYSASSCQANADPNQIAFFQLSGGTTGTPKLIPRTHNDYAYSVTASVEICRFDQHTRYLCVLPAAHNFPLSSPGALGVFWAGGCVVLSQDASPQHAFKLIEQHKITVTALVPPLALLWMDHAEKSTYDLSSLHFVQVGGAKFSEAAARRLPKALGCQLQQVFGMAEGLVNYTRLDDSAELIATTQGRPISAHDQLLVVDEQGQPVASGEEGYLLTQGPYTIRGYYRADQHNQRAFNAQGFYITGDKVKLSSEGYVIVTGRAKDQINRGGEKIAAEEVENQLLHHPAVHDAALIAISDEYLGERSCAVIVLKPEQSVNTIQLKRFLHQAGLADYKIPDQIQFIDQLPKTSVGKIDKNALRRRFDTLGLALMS
T4 sequence (P71716 whole entry, looked up): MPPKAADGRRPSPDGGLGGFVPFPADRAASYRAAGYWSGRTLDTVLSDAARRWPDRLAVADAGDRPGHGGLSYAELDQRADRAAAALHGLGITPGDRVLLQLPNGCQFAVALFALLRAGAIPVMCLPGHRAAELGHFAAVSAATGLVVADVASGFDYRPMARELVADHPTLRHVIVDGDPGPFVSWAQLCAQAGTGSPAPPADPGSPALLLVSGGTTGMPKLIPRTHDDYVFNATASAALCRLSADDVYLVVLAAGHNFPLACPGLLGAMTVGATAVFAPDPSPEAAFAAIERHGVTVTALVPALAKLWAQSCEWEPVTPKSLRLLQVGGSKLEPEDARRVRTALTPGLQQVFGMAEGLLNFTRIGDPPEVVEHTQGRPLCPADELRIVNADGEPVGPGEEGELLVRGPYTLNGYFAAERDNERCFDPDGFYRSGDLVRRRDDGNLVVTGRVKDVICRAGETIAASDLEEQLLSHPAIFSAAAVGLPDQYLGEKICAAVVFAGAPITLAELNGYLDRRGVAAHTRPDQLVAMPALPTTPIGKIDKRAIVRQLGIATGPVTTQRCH
Chain of AsbC (Q81RQ7 whole entry, looked up): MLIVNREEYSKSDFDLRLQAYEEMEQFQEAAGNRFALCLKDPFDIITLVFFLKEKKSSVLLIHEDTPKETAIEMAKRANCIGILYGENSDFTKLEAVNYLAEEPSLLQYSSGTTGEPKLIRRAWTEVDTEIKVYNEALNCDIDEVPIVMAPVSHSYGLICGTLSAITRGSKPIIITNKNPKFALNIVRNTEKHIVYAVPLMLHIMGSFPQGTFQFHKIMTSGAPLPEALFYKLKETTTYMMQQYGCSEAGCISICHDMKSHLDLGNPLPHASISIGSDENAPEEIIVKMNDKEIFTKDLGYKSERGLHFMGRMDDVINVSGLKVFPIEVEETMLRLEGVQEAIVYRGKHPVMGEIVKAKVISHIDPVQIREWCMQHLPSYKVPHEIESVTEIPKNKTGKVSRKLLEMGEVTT

Structure (SMILES): O=C(O)c1ccc(O)c(O)c1 [3,4-dihydroxybenzoic acid]
- kcat (pyrophosphate exchange) [1]: < 0.017 s⁻¹

Structure (SMILES): O=C(O)c1ccccc1 [benzoic acid]
- kcat [2]: < 0.017 s⁻¹
- kcat (pyrophosphate exchange) [1]: < 0.017 s⁻¹

Structure (SMILES): Nc1ncnc2c1ncn2[C@@H]1O[C@H](COS(=O)(=O)NC(=O)c2ccccc2O)[C@@H](O)[C@H]1O [compound 4, 5′-O-[N-(salicyl)sulfamoyl]adenosine]
- Kd [3, 19]: 0.0167 ± 0.0031 µM
- Kd [4, 19]: 0.0336 ± 0.006 µM

Structure (SMILES): CCN(CC)CC.Nc1ncnc2c1ncn2[C@@H]1O[C@H](COS(=O)(=O)NC(=O)c2ccccc2O)[C@@H](O)[C@H]1OCCOCCOCCNC(=O)c1ccc2c(c1)C(=O)OC21c2ccc(O)cc2Oc2cc(O)ccc21 [compound 6, 2′-O-{2-[2-(2-{[(Fluorescein-5-yl)carbonyl]amino}ethoxy)ethoxy]ethoxy}-5′-O-[N-(2-hydroxybenzoyl)sulfamoyl]adenosine Triethylammonium Salt]
- AB [5]: 0.200 ± 0.002
- Kd [5]: 0.0855 ± 0.0056 µM
- Q [5]: 1.27
- AB [6]: 0.210 ± 0.001
- Kd [6]: 0.221 ± 0.008 µM
- Q [6]: 1.21
- Q [7]: 1.07
- AB [8]: 0.240 ± 0.002
- Kd [8]: 0.0576 ± 0.0034 µM
- Q [8]: 1.07
- change of fluorescence anisotropy of the probe (binding to AsbC) [9]: did not show a significant change
- koff [10]: 0.0085 ± 0.00033 s⁻¹
- TΔS [11]: 4.41 ± 0.18 kcal/mol
- ΔH [11]: -4.88 ± 0.17 kcal/mol
- TΔS [12]: 0.71 ± 0.80 kcal/mol
- ΔH [12]: -9.80 ± 1.06 kcal/mol
- AB [13]: 0.222 ± 0.002
- Q [13]: 1.02
- AB [14]: 0.213 ± 0.005
- Kd [14]: 0.369 ± 0.033 µM
- Q [14]: 0.89

Structure (SMILES): O=C(O)c1ccccc1O [compound 20, salicylic acid]
- Kd [15]: 11.9 µM
- Km [2]: 91 µM
- kcat [2]: 2.5 s⁻¹
- Kd [16]: 36.6 µM
- Kd [3, 19]: 57.5 µM
- Kd [4, 19]: 211 µM

Structure (SMILES): O=C(O)c1cccc(O)c1O [compound 21, 2,3-dihydroxybenzoic acid]
- Kd [15]: > 300 µM
- Kd [17]: 3.76 µM
- Kd [16]: 1.64 µM
- Kd [3, 19]: 2.63 µM
- Kd [4, 19]: 8.18 µM

Structure (SMILES): Nc1ncnc2c1ncn2[C@@H]1O[C@H](COP(=O)(O)O)[C@@H](O)[C@H]1O [compound 22, adenosine monophosphate]
- Kd [15, 20]: 183 µM
- Kd [16]: 12 µM
- Kd [16, 20]: 12 µM
- Kd [3, 20]: 173 µM
- Kd [18]: 260 µM
- Kd [4, 20]: 125 µM
